# ChEMBL document CHEMBL1914419, “Discovery of aryloxy tetramethylcyclobutanes as novel androgen receptor antagonists” (J Med Chem, 2011)
# Assay: Intrinsic clearance in human liver microsomes
# Assay type: ADME, Microsome
row,microsomal CLint [µL/min/mg],Compound
1,29,Cc1nnc(C(=O)N[C@H]2C(C)(C)[C@H](Oc3ccc(C#N)c(Cl)c3)C2(C)C)o1
2,< 10,CC1(C)[C@H](NC(=O)c2cnc3ncccn23)C(C)(C)[C@H]1Oc1ccc(C#N)c(Cl)c1
3,< 7,CC(=O)N[C@H]1C(C)(C)[C@H](Oc2ccc(C#N)c(C)c2)C1(C)C
4,25,CC1(C)[C@H](NC(=O)c2ccn(CCC#N)n2)C(C)(C)[C@H]1Oc1ccc(C#N)c(Cl)c1
5,57,COCCn1ccc(C(=O)N[C@H]2C(C)(C)[C@H](Oc3ccc(C#N)c(Cl)c3)C2(C)C)n1
6,15,CN(C)C(=O)Cn1ccc(C(=O)N[C@H]2C(C)(C)[C@H](Oc3ccc(C#N)c(Cl)c3)C2(C)C)n1
7,< 7,CC(=O)N[C@H]1C(C)(C)[C@H](Oc2ccc(C#N)c(C#N)c2)C1(C)C
8,19,Cc1nc2ncccn2c1C(=O)N[C@H]1C(C)(C)[C@H](Oc2ccc(C#N)c(Cl)c2)C1(C)C
9,< 8,CC1(C)[C@H](NC(=O)c2cn[nH]c2)C(C)(C)[C@H]1Oc1ccc(C#N)c(Cl)c1
10,17.5,CC(=O)N[C@H]1C(C)(C)[C@H](Oc2ccc(C#N)cc2Cl)C1(C)C
11,< 8,Cc1nc(O[C@H]2C(C)(C)[C@H](NC(=O)c3cnc4ncccn34)C2(C)C)ccc1C#N
12,9,Cn1cc(C(=O)N[C@H]2C(C)(C)[C@H](Oc3ccc(C#N)c(Cl)c3)C2(C)C)cn1
13,< 12,CC1(C)[C@H](NC(=O)c2ccn(CCO)n2)C(C)(C)[C@H]1Oc1ccc(C#N)c(Cl)c1
14,9.8,CC1(C)[C@H](NC(=O)c2cnccn2)C(C)(C)[C@H]1Oc1ccc(C#N)c(Cl)c1
15,40,Cc1cc(C(=O)N[C@H]2C(C)(C)[C@H](Oc3ccc(C#N)c(Cl)c3)C2(C)C)nn1C

row,Compound,microsomal CLint [µL/min/mg]
1,CC(=O)N[C@H]1C(C)(C)[C@H](Oc2ccc(C#N)c(Cl)c2)C1(C)C,< 8
2,CC1(C)[C@H](NC(=O)c2cnn(CCO)c2)C(C)(C)[C@H]1Oc1ccc(C#N)c(Cl)c1,11
3,CC(=O)N[C@H]1C(C)(C)[C@H](Oc2ccc(C#N)c(C(F)(F)F)c2)C1(C)C,11
